Source: patent publication US10344037B2, “Use of the FL-one hundred eighteen core chemical structure platform to generate FL-one hundred eighteen derivatives for treatment of human disease” (priority 2014, dated 2019)

Tested on: human EU-4 acute lymphocytic leukemia
Experiment: EU-4 acute lymphocytic leukemia (ALL) mouse model
Type: in vivo, SCID mice
Details: IV, q2×5
From the text: The EU-4 cells are intraperitoneally injected (5×10^6 per SCID mouse). […] Body weight changes, belly enlargement and overall mouse survival status are documented every 2-3 days throughout the experiment period.
Of note, “died with ascites” means mice at a moribund/dying state and then being euthanized. This is because moribund mice need to be euthanized based on the animal protocol rule.

With CC[C@@]1(O)C(=O)OCc2c1cc1n(c2=O)Cc2cc3cc4c(cc3nc2-1)OCO4 [FL118] the “ascites production and animal survival” value was “effectively inhibits ascites production and extends animal survival”.
